The text below walks through data of ChEMBL document CHEMBL3046094, “Predicting anti-HIV activity of 1,1,3-trioxo[1,2,4]-thiadiazine (TTD) derivatives: 3D QSAR approach” (Med Chem Res, 2009).

Molecules are shown by their SMILES.

The assay deals with Human immunodeficiency virus 1. As to the kind of experiment: Antiviral activity against Human immunodeficiency virus 1 infected human MT4 cells assessed as inhibition of virus-induced cytopathic effect by MTT assay. Type of assay: functional, organism-based. The note with it: Human immunodeficiency virus 1, MT4.
On to `CN1C(=O)N(Cc2ccccc2)S(=O)(=O)c2cscc21`, for which the concentration giving a half-maximal response (EC50) was 2700 nM.

With `N#CCN1C(=O)N(Cc2cccc(F)c2)S(=O)(=O)c2cscc21`, the EC50 is 300 nM. With `CCCN1C(=O)N(Cc2ccccc2)S(=O)(=O)c2cscc21`, the concentration for a half-maximal effect (EC50) worked out at 6100 nM. Take `O=C1N(c2ccc(Cl)cc2)c2cscc2S(=O)(=O)N1Cc1ccccc1`: the 50% effective concentration (EC50) was 7400 nM.

In the case of `CCOC(=O)CN1C(=O)N(Cc2ccccc2)S(=O)(=O)c2cscc21`, the 50% effective concentration (EC50) came to 7300 nM. As for `N#CCN1C(=O)N(Cc2ccccn2)S(=O)(=O)c2cscc21`, the EC50 came to 400 nM. For `CCN1C(=O)N(c2cccc(Cl)c2)S(=O)(=O)c2cscc21`, the concentration for a half-maximal effect (EC50) was 61300 nM. For `CCN1C(=O)N(Cc2ccccc2Cl)S(=O)(=O)c2cscc21`, the EC50 is 7600 nM.

Take `O=C1N(Cc2ccccc2)c2cscc2S(=O)(=O)N1Cc1ccccn1`: the EC50 amounted to 200 nM. As for `O=C1N(c2cccc(Cl)c2)c2cscc2S(=O)(=O)N1Cc1ccccc1`, the figure is 1400 nM; as for `C#CCN1C(=O)N(Cc2cccc(Cl)c2)S(=O)(=O)c2cscc21`, 90 nM.

As for `CN1C(=O)N(Cc2cccc(Cl)c2)S(=O)(=O)c2cscc21`, the EC50 was found to be 2100 nM.

As for `N#CCN1C(=O)N(Cc2cccc(Br)c2)S(=O)(=O)c2cscc21`, the EC50 is 50 nM. As to `N#CCN1C(=O)N(Cc2ccccc2)S(=O)(=O)c2cscc21`, the EC50 was 870 nM.

As to `CCN1C(=O)N(Cc2cccc(Cl)c2)S(=O)(=O)c2cscc21`, the EC50 turned out to be 90 nM.

With `N#CCN1C(=O)N(Cc2cccc(Cl)c2)S(=O)(=O)c2cscc21`, the EC50 was determined as 100 nM. Turning to `O=C1N(c2ccccc2Cl)c2cscc2S(=O)(=O)N1Cc1ccccc1`, the EC50 stood at 100 nM. As for `CCN1C(=O)N(Cc2ccccn2)S(=O)(=O)c2cscc21`, the concentration giving a half-maximal response (EC50) was determined as 1100 nM. Regarding `N#CCN1C(=O)N(Cc2cc(F)cc(F)c2)S(=O)(=O)c2cscc21`, the 50% effective concentration (EC50) stood at 8600 nM. As to `CCN1C(=O)N(CCc2ccccc2)S(=O)(=O)c2cscc21`, the EC50 turned out to be 3600 nM. Take `C=CCN1C(=O)N(Cc2ccccc2)S(=O)(=O)c2cscc21`: the 50% effective concentration (EC50) came to 6300 nM. For `O=C1N(Cc2ccccc2)c2cscc2S(=O)(=O)N1CCc1ccccc1`, the EC50 is 41400 nM. As to `N#CCN1C(=O)N(CCc2ccccc2)S(=O)(=O)c2cscc21`, the EC50 was 10900 nM. Then `O=C1N(Cc2ccccc2)c2cscc2S(=O)(=O)N1Cc1ccccc1`, with 2200 nM. With `N#CCN1C(=O)N(Cc2cccnc2)S(=O)(=O)c2cscc21`, the EC50 amounted to 800 nM. `CCN1C(=O)N(Cc2ccccc2)S(=O)(=O)c2cscc21`: the concentration giving a half-maximal response (EC50) stood at 2400 nM. As for `C#CCN1C(=O)N(Cc2ccccc2)S(=O)(=O)c2cscc21`, the figure is 960 nM; as for `N#CCCN1C(=O)N(Cc2ccccc2)S(=O)(=O)c2cscc21`, 4900 nM.

The term EC50 denotes the concentration needed to bring the measured effect to its halfway point.
